Data reported in ChEMBL document CHEMBL3758102, “Serrulatane Diterpenoid from Eremophila neglecta Exhibits Bacterial Biofilm Dispersion and Inhibits Release of Pro-inflammatory Cytokines from Activated Macrophages” (J Nat Prod, 2015).
Converted amounts (≈) assume the structure as drawn. The source made the active and inactive calls. The rule behind the calls is not given here.

Legend:
[1] = test system: Staphylococcus epidermidis; experiment: Antibiofilm activity against Staphylococcus epidermidis ATCC 35984 assessed as reduction in 24 hrs pre-established biofilm viable cell count after 20 hrs (reference value: 1.4 x 10^10 +/- 2.6 x 10^9 CFU/ml); type: functional
[2] = test system: Staphylococcus epidermidis; experiment: Antibiofilm activity against Staphylococcus epidermidis ATCC 35984 assessed as reduction in 12 hrs pre-established biofilm viable cell count after 20 hrs (reference value: 1.2 x 10^10 CFU/ml); type: functional
Staphylococcus aureus [3] = experiment: Antibacterial activity against Staphylococcus aureus ATCC 35556 incubated overnight by broth microdilution method; type: functional
Staphylococcus aureus [4] = experiment: Antibacterial activity against Staphylococcus aureus ATCC 29213 incubated overnight by broth microdilution method; type: functional
[5] = test system: Staphylococcus epidermidis; experiment: (§1) Antibiofilm activity against Staphylococcus epidermidis ATCC 35984 assessed as 12 hrs pre-established supernatant viable cell count at 0.02 umol/mesh after 20 hrs by […] using compound impregnated in polypropylene mesh (Rvb =7.7 x 10^8 CFU/ml); type: functional
[6] = test system: Staphylococcus epidermidis; experiment: as §1, with “biofilm” for “supernatant”, “0.08” for “0.02”, “(reference value: 8.6” for “(Rvb =7.7”, “10^9” for “10^8”; type: functional
[7] = Induction of apoptosis in C57Bl/6 mouse BMDM cells assessed as viable cells at 80 uM by annexin V-FITC/DAPI staining-based flow cytometric analysis (reference value: 46.7%); type: functional; conditions: C57BI/6, BMDM, read-out: Activity
[8] = test system: Staphylococcus epidermidis; experiment: Antibiofilm activity against Staphylococcus epidermidis ATCC 35984 assessed as 6 hrs pre-established biofilm viable cell count after 20 hrs (reference value: 8.3 x 10^9 CFU/ml); type: functional
[9] = test system: Staphylococcus epidermidis; experiment: as §1, with “biofilm” for “supernatant”, “(reference value: 8.6” for “(Rvb =7.7”, “10^9” for “10^8”; type: functional
Escherichia coli = experiment: Antibacterial activity against Escherichia coli ATCC 25922 at 658 uM incubated overnight by broth microdilution method; type: functional, organism-based
[10] = Induction of apoptosis in C57Bl/6 mouse BMDM cells assessed as late apoptotic cells at 2.5 uM by annexin V-FITC/DAPI staining-based flow cytometric analysis (reference value: 28.4%); type: functional, C57BI/6
[11] = test system: Staphylococcus epidermidis; experiment: Antibiofilm activity against Staphylococcus epidermidis ATCC 35984 assessed as inhibition of 12 hrs pre-established biofilm formation at 0.064 umol/well after 20 hrs by safranin staining-based method; type: functional, organism-based
[12] = Induction of apoptosis in C57Bl/6 mouse BMDM cells assessed as early apoptotic cells at 160 uM by annexin V-FITC/DAPI staining-based flow cytometric analysis (reference value: 0.49%); type: functional, C57BI/6
[13] = Induction of apoptosis in C57Bl/6 mouse BMDM cells assessed as viable cells at 20 uM by annexin V-FITC/DAPI staining-based flow cytometric analysis (reference value: 46.7%); type: functional; conditions: C57BI/6, BMDM, read-out: Activity
[14] = test system: Staphylococcus epidermidis; experiment: Antibiofilm activity against Staphylococcus epidermidis ATCC 35984 assessed as 12 hrs pre-established supernatant viable cell count at 0.16 umol/mesh after 20 hrs by […] using compound impregnated in polypropylene mesh (Rvb =7.7 x 10^8 CFU/ml); type: functional
[15] = test system: Staphylococcus epidermidis; experiment: Antibiofilm activity against Staphylococcus epidermidis ATCC 35984 assessed as inhibition of 3 to 6 hrs pre-established biofilm formation at 0.064 umol/well after 20 hrs by safranin staining-based method; type: functional, organism-based
[16] = Induction of apoptosis in C57Bl/6 mouse BMDM cells assessed as dead cells at 80 uM by annexin V-FITC/DAPI staining-based flow cytometric analysis (reference value: 24.4%); type: functional, C57BI/6
[17] = Induction of apoptosis in C57Bl/6 mouse BMDM cells assessed as dead cells at 2.5 uM by annexin V-FITC/DAPI staining-based flow cytometric analysis (reference value: 24.4%); type: functional, C57BI/6
[18] = test system: Staphylococcus epidermidis; experiment: Antibiofilm activity against Staphylococcus epidermidis ATCC 35984 assessed as inhibition of 12 hrs pre-established biofilm formation at 0.16 umol after 20 hrs by safranin staining-based UV-visible spectroscopic analysis using compound impregnated in polypropylene mesh; type: functional, organism-based
BMDM [19] = experiment: Increase in IL-1beta production in C57Bl/6 mouse BMDM cells at 2.5 to 80 uM pretreated for 1 hr prior to ATP-stimulation by ELISA; type: functional, cell-based; conditions: C57BI/6
[20] = Induction of apoptosis in C57Bl/6 mouse BMDM cells assessed as dead cells at 40 uM by annexin V-FITC/DAPI staining-based flow cytometric analysis (reference value: 24.4%); type: functional, C57BI/6
[21] = test system: Staphylococcus epidermidis; experiment: Antibiofilm activity against Staphylococcus epidermidis ATCC 35984 assessed as reduction in 12 hrs pre-established biofilm viable cell count at 0.16 umol after 20 hrs relative to control; type: functional
[22] = Induction of apoptosis in C57Bl/6 mouse BMDM cells assessed as late apoptotic cells at 160 uM by annexin V-FITC/DAPI staining-based flow cytometric analysis (reference value: 28.4%); type: functional, C57BI/6
[23] = test system: Staphylococcus epidermidis; experiment: Antibiofilm activity against Staphylococcus epidermidis ATCC 35984 assessed as inhibition of 24 hrs pre-established biofilm formation at 0.064 umol/well after 20 hrs by safranin staining-based method; type: functional, organism-based
[24] = Induction of apoptosis in C57Bl/6 mouse BMDM cells assessed as early apoptotic cells at 40 uM by annexin V-FITC/DAPI staining-based flow cytometric analysis (reference value: 0.49%); type: functional, C57BI/6
[25] = Induction of apoptosis in C57Bl/6 mouse BMDM cells assessed as late apoptotic cells at 80 uM by annexin V-FITC/DAPI staining-based flow cytometric analysis (reference value: 28.4%); type: functional, C57BI/6
[26] = Induction of apoptosis in C57Bl/6 mouse BMDM cells assessed as early apoptotic cells at 2.5 uM by annexin V-FITC/DAPI staining-based flow cytometric analysis (reference value: 0.49%); type: functional, C57BI/6
[27] = test system: Staphylococcus epidermidis; experiment: as §1, with “biofilm” for “supernatant”, “0.01” for “0.02”, “(reference value: 8.6” for “(Rvb =7.7”, “10^9” for “10^8”; type: functional
[28] = Induction of apoptosis in C57Bl/6 mouse BMDM cells assessed as dead cells at 160 uM by annexin V-FITC/DAPI staining-based flow cytometric analysis (reference value: 24.4%); type: functional, C57BI/6
[29] = test system: Staphylococcus epidermidis; experiment: Antibiofilm activity against Staphylococcus epidermidis ATCC 35984 assessed as inhibition of 12 hrs pre-established biofilm formation at 0.064 umol/well after 20 hrs by visible spectrometric analysis; type: functional, organism-based
[30] = Induction of apoptosis in C57Bl/6 mouse BMDM cells assessed as late apoptotic cells at 40 uM by annexin V-FITC/DAPI staining-based flow cytometric analysis (reference value: 28.4%); type: functional, C57BI/6
BMDM [31] = experiment: Inhibition of IL-6 production in C57Bl/6 mouse BMDM cells at 2.5 to 80 uM pretreated prior to LPS-stimulation measured on day 7 by ELISA; type: functional, cell-based; conditions: C57BI/6
[32] = test system: Staphylococcus epidermidis; experiment: Antibiofilm activity against Staphylococcus epidermidis ATCC 35984 assessed as inhibition of 24 hrs pre-established biofilm formation at 0.064 umol/well after 20 hrs by visible spectrometric analysis; type: functional, organism-based

CC(C)=CCC[C@H](C)[C@@H]1CC[C@@H](C)c2c(O)cc(C(=O)O)cc21
Activity [1]: 2 log10CFU/ml
Activity [2]: 7 log10CFU/ml
MBC (Staphylococcus aureus [3]): 41 µM (≈ 13 µg/mL)
MIC (Staphylococcus aureus [3]): 41 µM (≈ 13 µg/mL)
MBC (Staphylococcus aureus [4]): 82 µM (≈ 25.9 µg/mL)
MIC (Staphylococcus aureus [4]): 82 µM (≈ 25.9 µg/mL)
Activity [5]: 5 ×10⁷ CFU/ml
Activity [6]: 2.7 ×10⁵ CFU/ml
viability at 80 µM [7]: 31%
Activity [8]: 0 CFU/ml
Activity [9]: 9.1 ×10⁸ CFU/ml
Activity (Escherichia coli): inactive
Activity [10]: 32.7%
inhibition [11]: Active
Activity [12]: 42.5%
viability at 20 µM [13]: 62.2%
Activity [14]: 9 ×10³ CFU/ml
inhibition [15]: Active
Activity [16]: 23.9%
Activity [17]: 13.3%
inhibition [18]: Active
Activity (BMDM [19]): inactive
Activity [20]: 21.8%
Activity [21]: 5 log10CFU/ml
Activity [22]: 3.88%
Activity [23]: inactive
Activity [24]: 0.99%
Activity [25]: 44.4%
Activity [26]: 2.54%
Activity [27]: 1.6 ×10⁹ CFU/ml
Activity [28]: 0.63%
inhibition [29]: Active
Activity [30]: 27.7%
inhibition (BMDM [31]): Active
inhibition [32]: Active
